This is an account of results in publication PMC8291587, “Guanidine Derivatives: How Simple Structural Modification of Histamine H3R Antagonists Has Led to the Discovery of Potent Muscarinic M2R/M4R Antagonists” (ACS Chemical Neuroscience, 2021).

A word on the Ki: it is the equilibrium dissociation constant of an inhibitor or competing ligand from its target. In general, Kd refers to the constant that tells how readily two partners part at equilibrium.

For one data set, the system named is M2R/M3R. Kind of data set: Ex vivo screening of muscarinic M2R/M3R antagonists on isolated guinea pig ileum (methacholine-induced contraction). As to conditions: methacholine as agonist. As for the experimental part: Another group of guinea pig intestinal receptors able to regulate smooth muscle contraction is that of the muscarinic receptors, including M2R and M3R. All compounds were tested on the muscarinic receptors using the same animal model. This approach is similar to measuring histamine H1R antagonist activity. Methacholine was used as a receptor agonist, while 1,1-dimethyl-4-diphenylacetoxypiperidinium iodide (4-DAMP) was used as a reference M3R antagonist. As methacholine is not selective according to M2R and M3R, it is not possible to precisely specify which one was responsible for the effect observed on the tissue preparations. Some authors often attribute the results to the minor M3R subtype (gpM2R:M3R = 4:1 or 5:1), which is generally associated with the contractions,[38] but such an overinterpretation may be misleading, as indicated by our further hM1R-hM5R radioligand binding assay results shown in Table 2. […] These findings partially explain the influence of ADS10227 on the contractility of guinea pig ileum following electrical stimulation. […] In subsequent studies, we tried to clarify this.
Male guinea pigs, weighing 300–400 g, were euthanized by a blow to the neck. A 20–30 cm length of the distal ileum, apart from the terminal 5 cm, was rapidly removed and placed in phosphate buffer at room temperature (pH 7.4) containing (mM) NaCl (136.9), KCl (2.6), KH2PO4 (1.47), Na2HPO4 (9.58), and indomethacin (1 × 10^–6 mol/L)). The intraluminal content was rinsed, and the isolated intestine was cut into 1.5–2 cm segments. The preparations were mounted isotonically in a 20 mL organ bath filled with Tyrode’s buffer: composition (mM) NaCl (137), KCl (2.7), MgCl2·6H2O (1.0), CaCl2 (1.8), NaH2PO4·H2O (0.4), NaHCO3 (11.9), glucose (5.61), and indomethacin (3 × 10^–7 mol/L). The solution was continuously bubbled with a 95% O2:5% CO2 mixture and maintained at 37 °C under a constant load of 0.5 g (Hugo Sachs Hebel–Messvorsatz (Tl-2)/HF-modem; Hugo Sachs Elektronik, Hugstetten, Germany) connected to a pen recorder (Kipp & Zonen BD41, Delft, Holland). During an equilibration period of 40 min, Tyrode’s buffer was changed every 10 min. The first cumulative concentration–response curve was determined for methacholine (10 nM to 3 mM) at increasing concentrations spaced by 3- or 3.3-fold. The second to the fourth (or fifth) curves were measured in the presence of an increasing concentration of antagonist (incubation time 20 min). The pA2 values were calculated according to Arunlakshana and Schild.[37] Statistical analysis was carried out with the Students’ t test. In all tests, a p < 0.05 was considered statistically significant.

Data set [1] deals with T1, H1R (Cavia porcellus, UniProt P31389).
T1 construct: from tissue; host or cells: isolated distal ileum of male guinea pigs
T1 sequence (P31389 whole entry): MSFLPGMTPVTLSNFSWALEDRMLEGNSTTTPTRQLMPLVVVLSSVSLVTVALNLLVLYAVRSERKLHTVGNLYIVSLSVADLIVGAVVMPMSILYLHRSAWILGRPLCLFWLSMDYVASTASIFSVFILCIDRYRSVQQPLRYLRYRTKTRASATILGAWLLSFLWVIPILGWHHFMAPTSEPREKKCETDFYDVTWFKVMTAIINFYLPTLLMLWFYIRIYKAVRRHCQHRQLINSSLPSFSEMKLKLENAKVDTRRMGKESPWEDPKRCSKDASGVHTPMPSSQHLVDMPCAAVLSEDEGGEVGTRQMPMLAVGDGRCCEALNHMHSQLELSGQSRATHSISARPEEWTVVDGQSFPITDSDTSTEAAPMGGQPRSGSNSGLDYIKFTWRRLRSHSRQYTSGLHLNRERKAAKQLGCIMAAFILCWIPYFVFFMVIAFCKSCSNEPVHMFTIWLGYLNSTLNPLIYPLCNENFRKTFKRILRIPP
Description: Ex vivo screening of histamine H1R antagonists on guinea pig ileum, variant with 0.05 μM atropine. To be noted: isolated guinea pig ileum, histamine as agonist, read-out: H1R+atropine pA2 gpi ± sem (converted). As for the experimental part: (§1) The second histamine receptor located in the guinea pig ileum is H1R. […] The H1R antagonistic effect was measured on isolated guinea pig ileum stimulated to contract by histamine.[37] To assess and exclude the influence of the ADS compounds on muscarinic receptors, two test variations were used: one with the addition of 0.05 μM atropine and one without.
(§2) Male guinea pigs, weighing 300–400 g, were euthanized by a blow to the neck. A 20–30 cm length of the distal ileum, apart from the terminal 5 cm, was rapidly removed and placed in phosphate buffer at room temperature (pH 7.4) containing (mM) NaCl (136.9), KCl (2.6), KH2PO4 (1.47), Na2HPO4 (9.58), and indomethacin (1 × 10^–6 mol/L). The intraluminal content was rinsed, and the isolated intestine was cut into 1.5–2 cm segments. The preparations were mounted isotonically in a 20 mL organ bath filled with Krebs buffer: composition (mM) NaCl (118), KCl (5.6), MgSO4 (1.18), CaCl2 (2.5), NaH2PO4·H2O (1.28), NaHCO3 (25), glucose (5.55), and indomethacin (3 × 10^–7 mol/L). […] The solution was continuously bubbled with a 95% O2:5% CO2 mixture and maintained at 37 °C under a constant load of 0.5 g (Hugo Sachs Hebel–Messvorsatz (Tl-2)/HF-modem; Hugo Sachs Elektronik, Hugstetten, Germany) connected to a pen recorder (Kipp & Zonen BD41, Delft, Holland). During an equilibration period of 40 min, Krebs buffer was changed every 10 min. The first cumulative concentration–response curve was determined for histamine (10 nM to 10 mM) at increasing concentrations spaced by 3- or 3.3-fold. The second to the fourth (or fifth) curves were measured in the presence of an increasing concentrations of antagonist (incubation time 10 min). The pA2 values were calculated according to Arunlakshana and Schild.[37] Statistical analysis was carried out with the Students’ t test. In all tests, a p < 0.05 was considered statistically significant.

Data set [2] addresses T1, H1R. Kind of data set: Ex vivo screening of histamine H1R antagonists on guinea pig ileum, variant without atropine. To be noted: isolated guinea pig ileum, histamine as agonist, read-out: H1R pA2 gpi ± sem (converted). As for the experimental part: as §1, §2
Data set [3] concerns electrically stimulated guinea pig ileum. Description: Decrease of contractility in electrically stimulated guinea pig ileum (-log EC50 determination). To be noted: electrically stimulated guinea pig ileum; for EC50: Cavia porcellus, read-out: Decrease of contractility (-logEC50 ± sem) (converted). As for the experimental part: A standard ex vivo assay based on the relaxant response of histamine H3R agonists to electrically driven guinea pig ileum was used to test the influence of ADS compounds on the reduction of electrically evoked tissue contraction. […] The −log EC50 value for RAMH and ADS compounds were evaluated. […] Following this, we decided to evaluate the ADS series as potential M2R/M3R ligands on the isolated guinea pig ileum.
Male guinea pigs, weighing 300–400 g, were euthanized by a blow to the neck. A 20–30 cm length of the distal ileum, apart from the terminal 5 cm, was rapidly removed and placed in phosphate buffer at room temperature (pH 7.4) containing (mM) NaCl (136.9), KCl (2.6), KH2PO4 (1.47), Na2HPO4 (9.58), and indomethacin (1 × 10^–6 mol/L)). The intraluminal content was rinsed, and the isolated intestine was cut into 1.5–2 cm segments. The preparations were mounted between two platinum electrodes isotonically in a 20 mL organ bath filled with Krebs buffer: composition (mM) NaCl (118), KCl (5.6), MgSO4 (1.18), CaCl2 (2.5), NaH2PO4·H2O (1.28), NaHCO3 (25), glucose (5.55), and indomethacin (3 × 10^–7 mol/L). The solution was continuously bubbled with a 95% O2:5% CO2 mixture and maintained at 37 °C under a constant load of 1.0 g (Hugo Sachs Hebel–Messvorsatz (Tl-2)/HF-modem; Hugo Sachs Elektronik, Hugstetten, Germany) connected to a pen recorder (Kipp & Zonen BD41, Delft, Holland). During an equilibration period of 60 min, Krebs buffer was changed every 10 min. Following this, the preparations were continuously stimulated at 15–20 V, at a frequency of 0.1 Hz for a duration of 0.5 ms, with rectangular-wave electrical pulses (Grass Stimulator S-88; Grass Instruments Co., Quincy, Massachusetts, USA). […] Cumulative concentration–response curve was determined to RAMH or tested agonist (10 nM to 10 mM) at increasing concentrations spaced by 3- or 3.3-fold. The agonist potency is expressed as pD2 value (−log EC50) ± sem.

The target of the next data set is T2, hH3R (Homo sapiens, UniProt Q9Y5N1).
T2 construct: expressed in transfected cells; membrane fractions
T2 sequence (Q9Y5N1 whole entry): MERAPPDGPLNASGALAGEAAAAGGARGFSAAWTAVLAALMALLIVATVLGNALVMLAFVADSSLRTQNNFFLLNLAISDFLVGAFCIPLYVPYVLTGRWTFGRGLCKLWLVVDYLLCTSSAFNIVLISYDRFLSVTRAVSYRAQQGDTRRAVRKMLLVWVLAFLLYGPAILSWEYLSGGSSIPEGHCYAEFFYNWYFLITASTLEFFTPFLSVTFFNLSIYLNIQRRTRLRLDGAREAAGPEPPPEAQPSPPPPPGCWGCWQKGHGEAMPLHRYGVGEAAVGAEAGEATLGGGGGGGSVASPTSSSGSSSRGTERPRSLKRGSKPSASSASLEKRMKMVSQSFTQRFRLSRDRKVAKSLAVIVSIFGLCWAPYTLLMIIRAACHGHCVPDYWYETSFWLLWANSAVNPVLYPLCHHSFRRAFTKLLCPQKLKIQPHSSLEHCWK
Kind of data set: hH3R radioligand displacement binding assay ([3H]-Nα-methylhistamine, HEK-293 cell membranes). As to conditions: for Ki: [3H]-Nα-methylhistamine, HEK-293 membranes, read-out: hH3R -log(Ki) ± sem (converted). The protocol:
[^3H]-N^α-Methylhistamine was used as a radiolabeled ligand.
The radioligand displacement binding assay was performed in membrane fractions of HEK-293 cells stably expressing hH3R. Cell cultivation and membrane preparation were performed according to Kottke et al.[43] […] The total assay volume was set to 200 μL. The compounds were tested in several appropriate concentrations between 100 μM and 0.1 nM. Pipetting was partly done by Freedom Evo (Tecan). […] The membrane fraction (20 μg/well), test compounds, and radiolabeled ligand were incubated for 90 min at 25 °C while shaking. The bound radioligand was separated from free radioligand by filtration through GF/B filters pretreated with 0.3% (m/v) polyethylenimine using a cell harvester. Radioactivity was determined by liquid scintillation counting using a MicroBeta Trilux (PerkinElmer). The data were obtained in duplicates in at least three independent experiments. Nonspecific binding was subtracted from the raw data to calculate specific-binding values. The evaluation was performed with GraphPad Prism 6.1 (San Diego, CA, USA) using nonlinear regression (one-site competition with a logarithmic scale). The Ki values were calculated from the IC50 values using the Cheng–Prusoff equation.[44] The statistical calculations were performed on −log Ki. The mean values and 95% confidence intervals were transformed to nanomolar concentrations.
On the technique in general: Loss of bound radioactivity is the signal in a displacement assay; it reports binding, not function.

For the next data set, the system named is M2R. Also on record: method as in PMID 11421251. To be noted: cited from earlier work.

For the molecule `C[N+]1(C)CCC(OC(=O)C(c2ccccc2)c2ccccc2)CC1.[I-]` [4-DAMP, 1,1-dimethyl-4-diphenylacetoxypiperidinium iodide, reference compound], the “M2R/M3R pA2 gpi ± sem” value in the data set on M2R/M3R was determined as 9.05 ±0.11.

In the case of `N=C(N)N(CCCCN1CCN(Cc2ccc(COc3ccccc3)cc2)CC1)Cc1ccc(C(F)(F)F)cc1` [ADS10183], the Kb at H1R [1] is 151 nM; at H1R [2], 182 nM. For the same molecule, the EC50 in data set [3] is 2290 nM. The “M2R/M3R pA2 gpi ± sem” value in the data set with M2R/M3R came to 5.83±0.22. For the same molecule, the inhibition constant (Ki) at hH3R is 1660 nM.

Turning to `N=C(N)N(CCCCN1CCN(Cc2ccc(COc3ccccc3)cc2)CC1)Cc1ccccc1` [ADS10185], the Kb on H1R [1] was 100 nM; at H1R [2] it was 105 nM. Moreover, the EC50 in data set [3] was 3090 nM. In addition, the “M2R/M3R pA2 gpi ± sem” value in the data set with M2R/M3R stood at 5.77±0.15. The Ki at hH3R was 1350 nM.

On to `[H]/N=C(\N)N(CCCCN1CCN(CC2CCC(COc3ccccc3)CC2)CC1)Cc1ccc(C(F)(F)F)cc1` (stereo not drawn) [ADS10207], for which the results for the Kb on H1R [1] and on H1R [2] were 120 nM and 75.9 nM, respectively. In addition, in data set [3], the EC50 was 724 nM. For the same molecule, the “M2R/M3R pA2 gpi ± sem” value in the data set with M2R/M3R was 5.68±0.15. The inhibition constant Ki at hH3R was 1620 nM.

With `N=C(N)N(CCCCN1CCN(Cc2ccc(Oc3ccccc3)cc2)CC1)Cc1ccc(C(F)(F)F)cc1` [ADS10210], the Kb at H1R [1] is 97.7 nM; on H1R [2], 60.3 nM. The EC50 in data set [3] was 575 nM. Besides, the “M2R/M3R pA2 gpi ± sem” value with M2R/M3R was 5.83±0.14. Besides, the Ki at hH3R was 1660 nM.

For `N=C(N)N(CCCCN1CCN(C[C@H]2CC[C@H](COc3ccccc3)CC2)CC1)Cc1ccccc1` [ADS10283], the Kb was 166 nM on H1R [1] and 145 nM at H1R [2]. Besides, the EC50 in data set [3] was 832 nM. In addition, the “M2R/M3R pA2 gpi ± sem” value in the data set on M2R/M3R is 6.02±0.07. For the same molecule, on hH3R, the Ki was 2040 nM.

Regarding `C[C@@H](N)Cc1c[nH]cn1` [RAMH, (R)(−)-α-methylhistamine, reference compound], the “Decrease of contractility (-logEC50 ± sem)” value in data set [3] came to 7.70±0.07. For the same molecule, in data set [3] (from concentration–response curves), the “intrinsic activity (maximal response as fraction of maximal response of the system)” value is 0.82.

`COc1ccc(S(=O)(=O)c2ccc(C3(C4CCN(C5CCN(C(=O)c6cccc(C)c6N)CC5)CC4)OCCO3)cc2)cc1` [SCH-217443]: the “effective dose in the rodent cognition model lower than that known to increase heart rate in rats” value with M2R is on record as 30 fold.

On hH3R (radioligand used at 2 nM), `CNCCc1cnc[nH]1` [[^3H]N^α-methylhistamine, reference compound] returned a Kd of 3.08 nM.
